These are literature values, as cited in PMC11211886 (Frontiers in Pharmacology, 2024).

Like-named read-outs stand apart in the source and are kept apart here.

For series [1] the following is noted: ref FDA, cited from earlier work.
The subject of another series is P-gp. More on the design: method as in FDA, 2014; FDA, 2017; FDA, 2018; FDA, 2021. The settings on record: ref FDA, 2014, 2017, 2018, 2021; cited from earlier work.
For series [2] the following is noted: cited from earlier work; for incidence of ≥Grade 3 GI toxicity, including diarrhea and colitis: clinical trials, ref FDA, 2014, FDA, 2017, 2018, 2021.
The conditions of series [3]: among marketed PI3Kδ inhibitors; ref FDA, 2014; FDA, 2017, 2018, 2021; cited from earlier work.

Take `COc1c(OCCCN2CCOCC2)ccc2c1N=C(NC(=O)c1cnc(N)nc1)N1CCN=C21` [copanlisib, Copanlisib]: the “exposure in the intestines versus plasma” value in series [1] (2018) is 190 fold. Moreover, the P-gp substrate status entry in the series with P-gp was “P-gp substrates”. In addition, the “incidence of ≥Grade 3 GI toxicity, including diarrhea and colitis” value (“incidence of ≥Grade 3 GI toxicity” for short) in series [2] is listed as “higher than 10%”. Further, the “diarrhea (TEAE) incidence” value in series [2] (patients with indolent and aggressive lymphoma, phase II, ref Dreyling et al., 2017) was 40.5%.

With `C[C@H](Nc1ncnc2[nH]cnc12)c1cc2cccc(Cl)c2c(=O)n1-c1ccccc1` [duvelisib, Duvelisib], the “exposure in the intestines versus plasma” value in series [1] (2017) is given as 100 fold. For the same molecule, the P-gp substrate status result in the series with P-gp is reported as “P-gp substrates”. Besides, in series [2], the “incidence of ≥Grade 3 GI toxicity” value is on record as “higher than 10%”. In series [2] (ref Wang et al., 2023), the “diarrhea, any-grade adverse event” value is 47% and the “diarrhea, grade ≥3 AE” value is on record as 12%.

As for `CC[C@H](Nc1ncnc2[nH]cnc12)c1nc2cccc(F)c2c(=O)n1-c1ccccc1` [idelalisib, Idelalisib], the “exposure in the intestines versus plasma” value in series [1] (2014) is reported as 50 fold. Moreover, the P-gp substrate status entry in the series with P-gp is recorded as “P-gp substrates”. For the same molecule, the “incidence of ≥Grade 3 GI toxicity” value in series [2] was “higher than 10%”.

Consider `CC(C)Oc1ccc(-c2nn([C@@H](C)c3oc4ccc(F)cc4c(=O)c3-c3cccc(F)c3)c3ncnc(N)c23)cc1F` [umbralisib, Umbralisib], for which, in series [1] (2021), the “exposure in the intestines versus plasma” value was 100 fold. Also, the Vz/F in human entry in series [3] is “highest Vz/F among these drugs”. For the same molecule, in series [2], the “incidence of ≥Grade 3 GI toxicity” value is reported as “higher than 10%”.
